The results in this text go back to publication PMC9571264 (Molecules, 2022).

Test [1] relates to Leukemia Cancer HL60. Nature of the test: MTT cytotoxicity assay, HL60. The format is cell-based. The conditions noted are these: Homo sapiens, HL-60, 48 h, read-out: IC50 (µM) ± SEM, Leukemia Cancer HL60. As to the method: (§1) Cytotoxic activities of the synthesized derivatives were screened against leukemia (HL60), liver (HepG2), breast (MCF-7), and lung (A549) cancer cell lines and non-cancerous THLE2 and WISH cells at different concentrations [0.01–100 µM] for 48 h using the MTT assay (Table 1).
(§2) Human promyelocytic leukemia ”HL-60”, human hepatocellular carcinoma “HepG2”, human breast cancer “MCF-7”, human lung cancer “A549” cell lines, and two normal cell lines, THLE-2 as normal adult liver epithelial cells and WISH as normal epithelial cells, were obtained from American Type Culture Collection “Rockville, MD, USA”.
(§3) According to the manufacturer’s protocol, the cells were seeded in 96-well plates at a concentration of 5 × 10^4 cells per well (200 µL). Different concentrations of the tested compounds were used to test the cytotoxicity. […] A non-linear regression of curve fit was used to calculate the IC50.
For orientation: Tetrazolium assays rely on reduction of a dye to a coloured formazan, in cell work by metabolically active cells.

The test system of test [2] is Breast Cancer MCF-7. Nature of the test: MTT cytotoxicity assay, MCF-7. The format is cell-based. The conditions noted are these: Homo sapiens, MCF7, 48 h, read-out: IC50 (µM) ± SEM, Breast Cancer MCF-7. As to the method:
as §1, §2, §3

In test [3] the test system is Lung Cancer A549. Nature of the test: MTT cytotoxicity assay, A549. The format is cell-based. The conditions noted are these: Homo sapiens, 48 h, read-out: IC50 (µM) ± SEM, Lung Cancer A549. As to the method: as §1, §2, §3
Test [4] concerns HepG2 cancer cells. Nature of the test: DNA content-flow cytometry cell-cycle analysis, HepG2. It counts as cell-based, human. The conditions noted are these: HepG2, IC50 = 13.14 μM, 48 h. On the procedure:
(See supplementary information for the detailed methodology of flow cytometric analyses, including “FITC/Annexin-V-FITC/PI differential apoptosis/necrosis”, “DNA content-flow cytometry aided cell cycle”, and “Caspase 3/7 green flow cytometry”).
Supplementary materials for detailed methodology […]
2.2.2.1.2. DNA Content-Flow Cytometry Aided Cell Cycle Analysis
After treatment with test compounds for 48 h, cells (10^5 cells) are collected by trypsinization and washed twice with ice-cold PBS (pH 7.4). Cells are re-suspended in two milliliters of 60% ice-cold ethanol and incubated at 4 °C for 1 h for fixation. Fixed cells are washed twice again with PBS (pH 7.4) and re-suspended in 1 mL of PBS containing 50 μg/mL RNAase A and 10 μg/mL propidium iodide (PI). After 20 min of incubation in dark at 37 C, cells are analyzed for DNA contents using flow cytometry analysis using FL2 (λex/em 535/617 nm) signal detector (ACEA Novocyte™ flowcytometer, ACEA Biosciences Inc., San Diego, CA, USA). For each sample, 12,000 events are acquired. Cell cycle distribution is calculated using ACEA NovoExpress™ software (ACEA Biosciences Inc., San Diego, CA, USA).
2.2.2.1.3. Caspase- 3/7 green flow cytometry assay
The ability of compounds 4 and 9 to induce the enzymatic activities of caspase 3/7 in HL60 and HepG2 respectively were assayed using caspase 3/7 green flow cytometry assay method. Briefly, control and the tested compounds treated cells (2.5x10^5/mL) were rinsed with ice cold PBS, cell lysates were prepared and subsequently protein
A general note: A flow cytometer gives signals particle by particle.

In test [5] the test system is P53, Bax, Caspase 3, Caspase 7, PI3k, AKT, and Bcl-2 mRNA in HepG2 cells. In words: RT-PCR relative mRNA expression of apoptosis-related genes, HepG2. The format is cell-based, human. The conditions noted are these: HepG2, IC50 = 13.14 μM, 48 h; versus β-actin; untreated control = 1.
Test [6] concerns p-PI3K and p-Akt in HepG2 cells. In words: Western blotting p-PI3K and p-AKT, HepG2. The format is cell-based, human. Conditions: HepG2, with respect to control untreated cells. On the procedure: Western blotting analysis was conducted using untreated and treated HepG2 and HL60 cells. Cells were washed in PBS and lysed in a boiling sample buffer (62.5 mM Tris-HCl pH 6.8, 1% SDS, 10% glycerol, and 5% β-mercaptoethanol) for sodium dodecyl sulfate polyacrylamide gel electrophoresis (SDS-PAGE). The lysates were boiled for 5 min with a lamellae buffer, and the proteins were separated by SDS-PAGE and transferred to an Immobilon membrane (Millipore, Burlington, MA, USA). After incubation in 5% non-fat dry milk, Tris-HCL, 0.1% Tween 20 for 1 h, p-PI3K, and p-AKT, primary antibodies were added to one of the membranes containing specimen samples and incubated at 4 °C overnight. Appropriate secondary antibodies were incubated for 2 hr at room temperature. After being washed twice n 1× TBS-T, densitometric analysis of the immunoblots was performed to quantify the amounts of p-PI3K and p-AKT against the control sample by total protein normalization using Image analysis software on the ChemiDoc MP imaging system (version 3) produced by Bio-Rad (Hercules, CA, USA).
concentration was measured. Lysates were combined with reaction buffer and
incubated with Caspase 3/7 Detection Reagent (specific colorimetric substrates) at 37
°C for 6 h. The samples were estimated at λ 488 nm in BD FACS Calibur flow
2.2.2.3. […]
the immunoblots was performed to quantify the amounts of p-PI3K and p-AKT against […]
On the technique in general: In western blotting, separated proteins are transferred to a membrane and probed.

Test [7] concerns HepG2 cells. Nature of the test: Agarose gel electrophoresis DNA fragmentation, HepG2. The format is cell-based, human.

Regarding `Cc1c(Br)c(=O)oc2c(Br)c(OC(=O)/C=C/c3ccccc3)c(Br)cc12` [Compound 8b, (2E)-3,6,8-Tribromo-4-methyl-2-oxo-2H-chromen-7-yl Cinnamate], the IC50 (in general, the concentration at which inhibition is half-maximal) in test [1] was 69 ± 2.14 µM. Moreover, the IC50 in test [2] was determined as 7.35 ± 0.67 µM. Further, the IC50 in test [3] came to 4.63 ± 0.16 µM. The compound further had a pre-G1 cell population in test [4] (control 1.71%) of 12.56%. In test [4] (control 12.34%), this compound gave a G2/M cell population of 26.05%. Also, the G0/G1 cell population in test [4] (control 53.6%) is given as 42.53%. In test [5], the “AKT relative mRNA expression” value is reported as 0.72 fold, the “Bax relative mRNA expression” value is 1.51 fold, the “Bcl-2 relative mRNA expression” value is 0.75 fold and the “P53 relative mRNA expression” value is given as 3.89 fold. Moreover, in test [5], the “PI3K relative mRNA expression” value turned out to be 0.75 fold, the “caspase 3 relative mRNA expression” value was found to be 4.63 fold and the “caspase 7 relative mRNA expression” value is listed as 3.63 fold. Further, the “levels of p-PI3K and p-Akt” value in test [6] is given as “effectively suppressed”. The DNA fragmentation result in test [7] is “Loss of intact DNA fragments”.
